Assay results reported in PubChem BioAssay (NCI).
Where “and” joins values, the source holds several entries; their conditions need not be identical. Equal entries are not always repeated.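 Briefly, cells in 96-well plates were exposed to five compound concentrations for 48 h, and endpoints were estimated by linear interpolation. At the GI50, growth is halved. TGI is the concentration that stops growth completely.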

Experiments:
Experiment in all cases: DTP human tumour cell line panel, 48 h
[1] = test system: M14 melanoma
[2] = test system: A549 NSCLC
[3] = test system: HCT-15 colon
[4] = test system: SNB-75 CNS
[5] = test system: UACC-62 melanoma
[6] = test system: SNB-19 CNS
[7] = test system: UO-31 renal
[8] = test system: RPMI-8226 leukemia
[9] = test system: HOP-62 NSCLC
[10] = test system: HL-60(TB) leukemia

Compound | GI50 [1] | TGI [1] | GI50 [2] | TGI [2] | GI50 [3] | TGI [3] | GI50 [4] | TGI [4] | GI50 [5] | TGI [5] | GI50 [6] | TGI [6] | GI50 [7] | TGI [7] | GI50 [8] | TGI [8] | GI50 [9] | TGI [9] | TGI [10] | GI50 [10]
CN(C)Cc1c[nH]c2c(NCCN)c3c(c(NCCN)c12)C(=O)c1ccccc1C3=O | 3.51 µM | 16.9 µM | 3.39 µM | 16.2 µM | 6.97 µM | 20 µM | 6.13 µM | 17 µM | 1.44 µM | 4.18 µM | 6.52 µM | 23 µM | 8.58 µM | 26 µM | 1.43 µM | 6.52 µM | 1.31 µM | 6.39 µM |  | 
C=CCC1[C@@H](C(C)(C)C(C(C)=O)C(=O)C(=O)OC)OC(C(C)(C)C)N1C(=O)OC (stereo partly specified) |  | > 100 µM |  | > 100 µM |  | > 100 µM |  | > 100 µM |  | > 100 µM |  | > 100 µM |  | > 100 µM |  |  |  | > 100 µM |  | 
CC(CC(=O)Nc1ccc(NC(=O)CC(C)N=NC(N)=S)cc1)N=NC(N)=S (stereo unspecified) |  | > 100 µM |  | > 100 µM |  | > 100 µM |  | > 100 µM |  | > 100 µM |  | > 100 µM |  | > 100 µM |  | > 100 µM |  | > 100 µM | > 100 µM | 
C#CCC(N)(CO)C(=O)O (stereo unspecified) |  | > 100 µM |  | > 100 µM |  | > 100 µM |  | > 100 µM |  | > 100 µM |  | > 100 µM |  | > 100 µM |  | > 100 µM |  | > 100 µM | > 100 µM | 
Cl[Si]1(Cl)Oc2ccccc2O[Si](Cl)(Cl)Oc2ccccc2O1 |  | 34.3 µM |  | > 100 µM |  | > 100 µM |  | 99.1 µM |  | 20.9 µM |  | > 100 µM |  |  |  | > 100 µM |  | > 100 µM | 4.63 µM | 
O=S(=O)(CCOCc1ccc(-c2ccc3ncnc(Nc4ccc(OCc5cccc(F)c5)c(Cl)c4)c3c2)o1)c1ccccc1 | > 25 µM | > 25 µM | > 25 µM | > 25 µM | > 25 µM | > 25 µM | > 25 µM | > 25 µM | > 25 µM | > 25 µM | > 25 µM | > 25 µM | > 7.54 µM | > 25 µM | > 25 µM | > 25 µM | > 25 µM | > 25 µM | > 25 µM | > 25 µM
Cc1cc2c(Br)cc(Br)c(O)c2nc1C(=O)c1ccccc1 |  | > 60.2 µM |  | > 100 µM |  | > 45.5 µM |  | > 100 µM |  | 15.3 µM |  | > 100 µM |  | > 82.1 µM |  | > 100 µM |  | > 31.6 µM | 8.11 µM | 
CC1(Cc2ccccc2)NC(=S)NC1=O (stereo unspecified) |  | > 100 µM |  | > 100 µM |  |  |  | > 100 µM |  |  |  | > 100 µM |  | > 100 µM |  |  |  | > 100 µM | > 100 µM | 
c1ccc2nc3c(cc4ccccn43)nc2c1 | > 100 µM | > 100 µM | 77.4 µM | > 100 µM | 73.4 µM | > 100 µM |  |  | 17.4 µM | > 100 µM | > 100 µM | > 100 µM | 6.25 µM | > 100 µM | > 100 µM | > 100 µM | 18.9 µM | 74.1 µM | > 100 µM | > 100 µM
CC/C(=N\NS(=O)(=O)c1ccccc1)c1ccccc1 |  | > 100 µM |  | > 100 µM |  | > 100 µM |  | > 100 µM |  | > 100 µM |  |  |  | > 100 µM |  | > 100 µM |  | > 100 µM | > 100 µM | 
CCN(CC)CCNC(=O)c1cn2ncnc(Oc3ccc(NC(=O)Nc4ccc(Cl)c(C(F)(F)F)c4)c(F)c3)c2c1C | 1.58 µM | 3.24 µM | 1.77 µM | 3.44 µM | 1.46 µM | 2.89 µM | 0.412 µM | 1.97 µM | 1.68 µM | 3.15 µM | 1.95 µM | 3.5 µM | 2.1 µM | 3.63 µM |  |  | 1.88 µM | 3.72 µM |  | 
CC1(C)CC[C@H](C2=CC(=O)c3c(O)ccc(O)c3C2=O)O1 | 0.797 µM and 0.274 µM and 0.201 µM | 1.78 µM and 0.859 µM and 0.438 µM | 9.2 µM and 3.48 µM and 3.31 µM | 30 µM and 10 µM | 1.71 µM and 0.378 µM and 0.226 µM | 4.11 µM and 1.64 µM and 0.65 µM | 8.53 µM and 2.87 µM and 0.95 µM | 27.7 µM and 4.02 µM | 2.36 µM and 1.3 µM and 0.54 µM | 5.28 µM and 2.66 µM and 1.53 µM |  |  | 1.39 µM and 1.69 µM and 0.391 µM | 4 µM and 3.06 µM and 0.838 µM | 1.42 µM and 0.278 µM and 0.398 µM | 5.13 µM and 0.992 µM and 2.2 µM |  | 9.96 µM and 6.57 µM | 1.36 µM and 0.442 µM | 0.505 µM and 0.131 µM
CCSc1nc(N)c2cn[nH]c2n1 | 33.8 µM | > 100 µM | 44.6 µM | > 100 µM | 41.7 µM | > 100 µM |  |  | 18 µM | 38.9 µM | 39.2 µM | > 100 µM | 49 µM | > 100 µM | 21.3 µM | 49.1 µM | 49 µM | > 100 µM |  | 
OC(CN1CC1)C(O)CN1CC1 (stereo unspecified) | > 50 µg/mL | > 50 µg/mL | > 50 µg/mL | > 50 µg/mL | > 50 µg/mL | > 50 µg/mL |  |  | > 50 µg/mL | > 50 µg/mL | > 50 µg/mL | > 50 µg/mL | > 50 µg/mL | > 50 µg/mL |  |  | > 50 µg/mL | > 50 µg/mL | > 50 µg/mL | > 50 µg/mL
CC(=O)N[C@H](C(=O)N[C@@H](CCCNC(=N)N)C(=O)N[C@@H](CCCCN)C(=O)N[C@@H](CCCNC(=N)N)C(=O)N[C@]1(C)CCCCCC/C=C\CCC[C@@](C)(C(=O)N[C@@H](CCCNC(=N)N)C(=O)N[C@@H](CCC(=O)O)C(=O)N[C@@H](CC(C)C)C(=O)N[C@H](C(=O)N[C@@H](CCC(=O)O)C(N)=O)C(C)C)NC(=O)[C@H](CCC(N)=O)NC(=O)[C@H](CC(C)C)NC(=O)[C@H](CC(C)C)NC(=O)[C@H](CCCNC(=N)N)NC(=O)[C@H](CCCNC(=N)N)NC(=O)[C@H](CC(C)C)NC1=O)C(C)C | 2.13 µM | 27.6 µM | 3.4 µM | 27.6 µM | 3.02 µM | 47.3 µM | 1.99 µM | 13.1 µM |  |  | 10.3 µM | > 50 µM | 11.1 µM | 47.1 µM | 6.48 µM | 20.9 µM | 2.35 µM | 22.5 µM | 18.5 µM | 5.19 µM
COc1cccc(/C=C2\CCC(C)(CN(C)C)C2=O)c1 (stereo unspecified) |  | > 100 µM |  | > 100 µM |  | > 100 µM |  | > 100 µM |  | > 100 µM |  | > 100 µM |  | > 100 µM |  | 68.1 µM |  | > 100 µM |  | 
